Three compounds from ChEMBL document CHEMBL1147375, “Three New Bromotyrosine-Derived Metabolites of the Sponge Psammaplysilla purpurea” (J Nat Prod, 1993) can be followed below.

Values after ≈ are worked out from the molar mass of the structure shown. Active and inactive are the calls of the source. The calls are words filed in the database; no cut-off is given here.

In assay [1] the test system is A549. The assay is described as follows: Cytotoxicity against human A549 cells. The assay is classed as functional, cell-based.
For assay [2], the system named is Human immunodeficiency virus 1. The assay is described as follows: Antiviral activity against HIV1 Haitian RF at 1 ug/mL. It counts as functional, organism-based.
For assay [3], the system named is P388. The assay is described as follows: Cytotoxicity against mouse P388 cells. It counts as functional, cell-based.
Assay [4] deals with KB. The assay is described as follows: Cytotoxicity against human KB cells. It counts as functional, cell-based.
For assay [5], the system named is HT-29. The assay is described as follows: Cytotoxicity against human HT-29 cells. It counts as functional, cell-based.
Assay [6] has as its system Escherichia coli. The assay is described as follows: Antibacterial activity against Escherichia coli at 100 ug/disk. The assay is classed as functional, organism-based.
Assay [7] deals with Staphylococcus aureus. The assay is described as follows: Antibacterial activity against Staphylococcus aureus at 100 ug/disk. The assay is classed as functional. The following applies: read-out: IZ.

One may read the IC50 as the point on the concentration scale where inhibition reaches its midpoint. In the case of `COc1ccc(C/C(=N\O)C(=O)NCCc2cc(Br)c(OCCCN)c(Br)c2)cc1Br` [APLYSAMINE 3], the IC50 in assay [1] came to 2 µg/mL (≈ 3.21 µM); in assay [3] it was 1 µg/mL (≈ 1.61 µM); in assay [4] it was 5 µg/mL (≈ 8.04 µM); in assay [5], 2 µg/mL (≈ 3.21 µM). Moreover, the outcome in assay [2] and in assay [6] was inactive. The zone of inhibition at 100 µg/disc in assay [7] came to 10 mm.
With `Br.COc1c(Br)cc(C/C(=N\O)C(=O)NCCc2cc(Br)c(OCCCN)c(Br)c2)cc1Br` [APLYSAMINE 4], the IC50 in assay [1] was 2.5 µg/mL; in assay [3] it was 2.5 µg/mL; in assay [4], 5 µg/mL; in assay [5] it was 2.5 µg/mL. Also, the result in assay [2] and in assay [6] was inactive. Further, the zone of inhibition at 100 µg/disc in assay [7] is 10 mm.
With `COc1ccc(C/C(=N\O)C(=O)NCCc2cc(Br)c(OCCCNC(=O)CCCCCCCCCCCC(C)C)c(Br)c2)cc1Br` [APLYSAMINE 5], the IC50 amounted to 2.5 µg/mL (≈ 2.95 µM) in assay [1], 10 µg/mL (≈ 11.8 µM) in assay [3], 2 µg/mL (≈ 2.36 µM) in assay [4] and 2.5 µg/mL (≈ 2.95 µM) in assay [5]. Further, the result in assay [2] was inactive.
